Measurements reported in patent publication US4775681A, “Method of treating fungal infections with trans-6-[2-substitutedpyrrol-1-yl)alkyl]-4-hydroxypyran-2-ones” (Warner-Lambert Company, priority 1987, dated 1988).
Converted amounts (≈) assume the structure as drawn. Where a name gives a salt, the structure may show the parent alone.

Key:
Assay in all cases: Antifungal susceptibility, microbroth dilution MIC
Type in all cases: cell-based
Candida albicans = tested on: Candida albicans
Protocol: (§1) The antimicrobial susceptibilities of eleven strains of Candida albicans, two strains of Candida tropicans, and one strain each of Torulopsis glabrata and Cryptococcus neoformans to several representative compounds of the present invention were tested. For comparison, the known antifungal agents amphotericin-B and ketoconazole were also tested. Minimal inhibitory concentrations (MIC's) for each compound were determined using the microbroth dilution technique described by S. Shadomy, et al, "Laboratory Studies with Antifungal Agents: Susceptibility Tests and Bioassays," pp. 991-999 in Manual Clin. Microbiol., 4th Ed., Amer. Soc. For Microbiol., Washington, D.C., 1985. The compounds tested are as follows and the results of the testing appear in the following Table.

Torulopsis glabrata = conditions: Nakaseomyces glabratus; strain 1581; 24 hours
Protocol: as §1

Candida tropicans = tested on: Candida tropicans
Protocol: as §1

Cryptococcus neoformans = conditions: strain 1678, 24 hours
Protocol: as §1

[1] = ATCC10231, 24 h, strain ATCC 10231
[2] = ATCC13803, strain ATCC 13803, 24 hours

| MIC (Candida albicans; 24 h, strain 1570) [µg/mL] | MIC (Candida albicans; 24 h, strain 1571) [µg/mL] | MIC (Candida albicans; 24 h, strain 1574) [µg/mL] | MIC (Candida albicans; 24 h, strain 1575) [µg/mL] | MIC (Candida albicans; 24 h, strain 1576) [µg/mL] | MIC (Candida albicans; 24 h, strain 1577) [µg/mL] | MIC (Candida albicans; 24 h, strain 1578) [µg/mL] | MIC (Candida albicans; 24 h, strain 1579) [µg/mL] | MIC (Candida albicans; 24 h, strain B4b) [µg/mL] | MIC (Candida albicans; 24 h, strain M752) [µg/mL] | MIC (Candida albicans; [1]) [µg/mL] | MIC (Torulopsis glabrata) [µg/mL] | MIC (Candida tropicans; [2]) [µg/mL] | MIC (Candida tropicans; strain 1573, 24 hours) [µg/mL] | MIC (Cryptococcus neoformans) [µg/mL] | Compound |
| --- | --- | --- | --- | --- | --- | --- | --- | --- | --- | --- | --- | --- | --- | --- | --- |
| 16 | 32 | 16 | 32 | 15 | 16 | 16 | 16 | 16 | 32 | 16 | 128 | 64 | 16 | 128 | CC(C)c1c(Br)c(Br)c(-c2ccc(F)cc2)n1CC[C@@H](O)C[C@@H](O)CC(=O)O (relative stereo) [Compound 1, 3,4-Dibromo-2-(4-fluorophenyl)-β,δ-dihydroxy-5-(1-methylethyl)-1H-pyrrole-1-heptanoic acid, monosodium salt] |
| 32 (≈ 61.3 µM) | 64 (≈ 123 µM) | 32 (≈ 61.3 µM) | 32 (≈ 61.3 µM) | 32 (≈ 61.3 µM) | 32 (≈ 61.3 µM) | 32 (≈ 61.3 µM) | 32 (≈ 61.3 µM) | 16 (≈ 30.6 µM) | 32 (≈ 61.3 µM) | 16 (≈ 30.6 µM) | 128 (≈ 245 µM) | 64 (≈ 123 µM) | 16 (≈ 30.6 µM) | 64 (≈ 123 µM) | CCOC(=O)c1c(Br)c(-c2ccc(F)cc2)n(CC[C@H]2C[C@H](O)CC(=O)O2)c1C(F)(F)F (relative stereo) [Compound 2, trans-4-Bromo-5-(4-fluorophenyl)-1[2-(tetrahydro-4-hydroxy-6-oxo-2H-pyran-2-yl)-ethyl]-2-(trifluoromethyl)-1H-pyrrole-3-carboxylic acid, ethyl ester] |
| 64 | 64 | 64 | 64 | 64 | 32 | 64 | 64 | 32 | 64 | 32 | 128 | 128 | 32 | 128 | CC(C)c1c(Cl)c(Cl)c(-c2ccc(F)cc2)n1CC[C@@H](O)C[C@@H](O)CC(=O)O (relative stereo) [Compound 3, 3,4-Dichloro-2-(4-fluorophenyl)-β,δ-hydroxy-5-(1-methylethyl)-1H-pyrrole-1-heptanoic acid, monosodium salt] |

The remaining lines, values behind:

| Compound | MIC (Candida albicans; 24 h, strain 1570) [µg/mL] | MIC (Candida albicans; 24 h, strain 1571) [µg/mL] | MIC (Candida albicans; 24 h, strain 1574) [µg/mL] | MIC (Candida albicans; 24 h, strain 1575) [µg/mL] | MIC (Candida albicans; 24 h, strain 1576) [µg/mL] | MIC (Candida albicans; 24 h, strain 1577) [µg/mL] | MIC (Candida albicans; 24 h, strain 1578) [µg/mL] | MIC (Candida albicans; 24 h, strain 1579) [µg/mL] | MIC (Candida albicans; 24 h, strain B4b) [µg/mL] | MIC (Candida albicans; 24 h, strain M752) [µg/mL] | MIC (Candida albicans; [1]) [µg/mL] | MIC (Torulopsis glabrata) [µg/mL] | MIC (Candida tropicans; [2]) [µg/mL] | MIC (Candida tropicans; strain 1573, 24 hours) [µg/mL] | MIC (Cryptococcus neoformans) [µg/mL] |
| --- | --- | --- | --- | --- | --- | --- | --- | --- | --- | --- | --- | --- | --- | --- | --- |
| C[C@@H]1[C@H](O)[C@@H](C)/C=C/C=C/C=C/C=C/C=C/C=C/C=C/[C@H](O[C@@H]2O[C@H](C)[C@@H](O)[C@H](N)[C@@H]2O)C[C@@H]2O[C@](O)(C[C@@H](O)C[C@@H](O)[C@H](O)CC[C@@H](O)C[C@@H](O)CC(=O)O[C@H]1C)C[C@H](O)[C@H]2C(=O)O [AMP-B, Amphotericin-B, reference compound] | 8 (≈ 8.66 µM) | 2 (≈ 2.16 µM) | 4 (≈ 4.33 µM) | 8 (≈ 8.66 µM) | 4 (≈ 4.33 µM) | 8 (≈ 8.66 µM) | 8 (≈ 8.66 µM) | 4 (≈ 4.33 µM) | 4 (≈ 4.33 µM) | 8 (≈ 8.66 µM) | 4 (≈ 4.33 µM) | 8 (≈ 8.66 µM) | 8 (≈ 8.66 µM) | 4 (≈ 4.33 µM) | 4 (≈ 4.33 µM) |
| CC(=O)N1CCN(c2ccc(OCC3COC(Cn4ccnc4)(c4ccc(Cl)cc4Cl)O3)cc2)CC1 (stereo not drawn) [Keto, Ketoconazole, reference compound] | 0.25 (≈ 0.47 µM) | 0.125 (≈ 0.235 µM) | 0.25 (≈ 0.47 µM) | 0.5 (≈ 0.941 µM) | > 0.5 | 0.125 (≈ 0.235 µM) | 0.25 (≈ 0.47 µM) | 0.5 (≈ 0.941 µM) | 0.25 (≈ 0.47 µM) | 0.25 (≈ 0.47 µM) | > 0.5 | > 0.5 | 0.5 (≈ 0.941 µM) | > 0.5 | > 0.5 |
